Measurements taken from patent US11213522B2, “Autoimmune-induced glutamatergic receptor dysfunction methods and treatments” (SARAH HERZOG MEMORIAL HOSPITAL EZRAT NASHIM ASSOCIATION, priority 2013, dated 2022).

Tested on: Rodent neuron cell cultures treated with anti-NMDAR antibodies
Assay: Example 3: NMDAR localization in neuron cultures treated with anti-NMDAR antibodies
Format: cell-based
Conditions: Glycine 100-500 uM; histological measurements
Experimental: Rodent neuron cell cultures are treated with anti-NMDAR antibodies as described in Hughes E G et al., J Neurosci 2012 30(17):5866-75. […] The determination of receptors localization and other relevant measures is based on histological measurements.
Immunohistochemical methods will be applied to document (a) localization of NMDAR and NR1 and NR2 subunits; (b) loss of oligodendrocytes; (c) changes in astrocytes (S100beta) and microglia (cd11b), (d) expression of neurotrophic factors: brain derived neurotrophic factor (BDNF), nerve growth factor (NGF) and ciliary neurotrophic factor (CNTF); (e) markers of neurogenesis—doublecortin (17) and apoptosis—caspase3 (9). Quantification of histological measurements is based on images in several cortical subregions, striatum, […], hippocampus, and cerebellum.

Compound: NCC(=O)O [Glycine]
- Effect on NMDAR intracellular localization: reversing receptor intracellular localization
